Measured values taken from patent publication US20160024083A1, “COMPOUNDS AND METHODS FOR TREATING CANCERS” (HEALTH RESEARCH, INC., priority 2013, published 2016).

Tests used:
Format in all cases: cell-based
CWR22R = experiment: cells
Hela = experiment: Inhibition of growth / toxicity in non-target Hela cells
Method: (§1) This example provides a table (below) of the compounds of the present disclosure and their activity towards four different cell lines (i.e., CWR22R, HeLa, PC3, and MDA-MB-231). The IC50 for inhibition of growth is divided into 4 categories: A<1 μM, B 1-5 μM, C 5-20 μM, D>20 μM.
(§2) All compounds were tested for toxicity using 4 cells lines, target cells—CWR22R and non-target cells, Hela, PC3 and MDA-MB-231 (FIGS. 1A-F).

PC3 = experiment: Inhibition of growth / toxicity in non-target PC3 cells; conditions: castration resistant prostate cancer, AR−
Method: as §1, §2

MDA-MB-231 = experiment: Inhibition of growth / toxicity in non-target MDA-MB-231 cells; conditions: Homo sapiens
Method: as §1, §2

LNCaP = experiment: Sensitivity to growth inhibition, LNCaP; conditions: castration resistant prostate cancer, AR+
C4-2 = experiment: Sensitivity to growth inhibition, C4-2; conditions: castration resistant prostate cancer, AR+
VCaP = experiment: Sensitivity to growth inhibition, VCaP; conditions: castration resistant prostate cancer, Armut
Du145 = experiment: Sensitivity to growth inhibition, Du145; conditions: castration resistant prostate cancer, AR−
PPC1 = experiment: Sensitivity to growth inhibition, PPC1; conditions: castration resistant prostate cancer, AR−
HT1080 = experiment: Sensitivity to growth inhibition, HT1080; conditions: fibrosarcoma AR−
MRC5 = experiment: Sensitivity to growth inhibition, MRC5; conditions: normal fibroblasts, AR−
PANC1 = experiment: Sensitivity to growth inhibition, PANC1; conditions: pancreatic adenocarcinoma, AR−
MiaPaca = experiment: Sensitivity to growth inhibition, MiaPaca; conditions: pancreatic adenocarcinoma, AR−
RCC45 = experiment: Sensitivity to growth inhibition, RCC45; conditions: renal cell carcinoma, AR−
SKRC45 = experiment: Sensitivity to growth inhibition, SKRC45; conditions: renal cell carcinoma, AR−
ACHN = experiment: Sensitivity to growth inhibition, ACHN; conditions: renal cell carcinoma, AR−
NKE = experiment: Sensitivity to growth inhibition, NKE; conditions: normal kidney, AR−
HepG2 = experiment: Sensitivity to growth inhibition, HepG2; conditions: hepatocellular carcinoma, AR +
Hep3B = experiment: Sensitivity to growth inhibition, Hep3B; conditions: hepatocellular carcinoma, AR +
normal hepatocytes = experiment: Sensitivity to growth inhibition, normal hepatocytes
HMEC = experiment: Sensitivity to growth inhibition, HMEC; conditions: normal breast
MCF10A = experiment: Sensitivity to growth inhibition, MCF10A; conditions: mammary gland epithelium
AU565 = experiment: Sensitivity to growth inhibition, AU565; conditions: Luminal breast carcinoma, AR+
ZR7530 = experiment: Sensitivity to growth inhibition, ZR7530; conditions: Luminal breast carcinoma, AR+
ZR751 = experiment: Sensitivity to growth inhibition, ZR751; conditions: Luminal breast carcinoma, AR+
BT474 = experiment: Sensitivity to growth inhibition, BT474; conditions: Luminal breast carcinoma, AR+
MDAMB415 = experiment: Sensitivity to growth inhibition, MDAMB415; conditions: Luminal breast carcinoma, AR+
MDAMB453 = experiment: Sensitivity to growth inhibition, MDAMB453; conditions: Luminal breast carcinoma, AR+
T47D = experiment: Sensitivity to growth inhibition, T47D; conditions: Luminal breast carcinoma, AR+
MCF7 = experiment: Sensitivity to growth inhibition, MCF7; conditions: Luminal breast carcinoma, AR+
SUM185PE = experiment: Sensitivity to growth inhibition, SUM185PE; conditions: Luminal breast carcinoma, AR+
HCC1419 = experiment: Sensitivity to growth inhibition, HCC1419; conditions: Luminal breast carcinoma, AR+
UACC893 = experiment: Sensitivity to growth inhibition, UACC893; conditions: Luminal breast carcinoma, AR+
CAMA1 = experiment: Sensitivity to growth inhibition, CAMA1; conditions: Luminal breast carcinoma, AR+
HCC202 = experiment: Sensitivity to growth inhibition, HCC202; conditions: Luminal breast carcinoma, AR−
EFM192A = experiment: Sensitivity to growth inhibition, EFM192A; conditions: Luminal breast carcinoma, AR−

CCCn1c2ccccc2c2cc(C(C)=O)ccc21 [Compound 1-3, 1-(9-propyl-9H-carbazol-3-yl)ethanone]
Compound 1-3 sensitivity (CWR22R; CWR22R, castration resistant prostate cancer, AR+): S | IC50 (CWR22R; Homo sapiens, 22Rv1, CWR22R, read-out: IC50 for inhibition of growth): < 1 µM | Compound 1-3 sensitivity (Hela; Hela, cervix adenocarcinoma, AR−): R | IC50 (Hela; Homo sapiens, HeLa): > 20 µM | Compound 1-3 sensitivity (PC3): R | IC50 (MDA-MB-231): > 20 µM | Compound 1-3 sensitivity (LNCaP): S | Compound 1-3 sensitivity (C4-2): S | Compound 1-3 sensitivity (VCaP): R | Compound 1-3 sensitivity (Du145): R | Compound 1-3 sensitivity (PPC1): R | Compound 1-3 sensitivity (HT1080): R | Compound 1-3 sensitivity (MRC5): R | Compound 1-3 sensitivity (PANC1): R | Compound 1-3 sensitivity (MiaPaca): R | Compound 1-3 sensitivity (RCC45): R | Compound 1-3 sensitivity (SKRC45): R | Compound 1-3 sensitivity (ACHN): R | Compound 1-3 sensitivity (NKE): R | Compound 1-3 sensitivity (HepG2): S | Compound 1-3 sensitivity (Hep3B): S | Compound 1-3 sensitivity (normal hepatocytes): R | Compound 1-3 sensitivity (HMEC): R | Compound 1-3 sensitivity (MCF10A): R | Compound 1-3 sensitivity (AU565): S | Compound 1-3 sensitivity (ZR7530): S | Compound 1-3 sensitivity (ZR751): S | Compound 1-3 sensitivity (BT474): S | Compound 1-3 sensitivity (MDAMB415): S | Compound 1-3 sensitivity (MDAMB453): S | Compound 1-3 sensitivity (T47D): S | Compound 1-3 sensitivity (MCF7): S | Compound 1-3 sensitivity (SUM185PE): S | Compound 1-3 sensitivity (HCC1419): R | Compound 1-3 sensitivity (UACC893): R | Compound 1-3 sensitivity (CAMA1): R | Compound 1-3 sensitivity (HCC202): S | Compound 1-3 sensitivity (EFM192A): S
